# Results: patent US20220386606A1, “SPECIFICALLY SUBSTITUTED 3-PHENYL-5-SPIROCYCLOPENTYL-3-PYRROLIN-2-ONES AND THEIR USE AS HERBICIDES” (Bayer Aktiengesellschaft, priority 2019, published 2022)
# What was measured:
# ALOMY [1] = assay: Pre-emergence herbicidal action against ALOMY; assay type: in vivo, Alopecurus myosuroides; conditions: 320 g/ha, scored visually after 3 weeks vs untreated controls
# Excerpt: (§1) Seeds of monocotyledonous and dicotyledonous weed plants and crop plants are laid out in sandy loam soil in wood-fiber pots and covered with soil. The compounds of the invention, formulated in the form of wettable powders (WP) or as emulsion concentrates (EC), are then applied to the surface of the covering soil as aqueous suspension or emulsion at a water application rate equating to 600 to 800 L/ha with addition of 0.2% wetting agent.
# (§2) After the treatment, the pots are placed in a greenhouse and kept under good growth conditions for the trial plants. The damage to the test plants is scored visually after a test period of 3 weeks by comparison with untreated controls (herbicidal activity in percent (%): 100% activity=the plants have died, 0% activity=like control plants).
# AVEFA [2] = assay: Pre-emergence herbicidal action against AVEFA; assay type: in vivo, Avena fatua; conditions: 320 g/ha, scored visually after 3 weeks vs untreated controls
# Excerpt: as §1, §2
# DIGSA [3] = assay: Pre-emergence herbicidal action against DIGSA; assay type: in vivo, Digitaria sanguinalis; conditions: 320 g/ha, scored visually after 3 weeks vs untreated controls
# Excerpt: as §1, §2
# ECHCG [4] = assay: Pre-emergence herbicidal action against ECHCG; assay type: in vivo, Echinochloa crus-galli; conditions: 320 g/ha, scored visually after 3 weeks vs untreated controls
# Excerpt: as §1, §2
# LOLRI [5] = assay: Pre-emergence herbicidal action against LOLRI (Table 8, titled post-emergence at 320 g/ha); assay type: in vivo, Lolium rigidum; conditions: table stands in the pre-emergence section
# Excerpt: as §1, §2
# SETVI [6] = assay: Pre-emergence herbicidal action against SETVI; assay type: in vivo, Setaria viridis; conditions: 320 g/ha, scored visually after 3 weeks vs untreated controls
# Excerpt: as §1, §2
# ALOMY [7] = assay: Post-emergence herbicidal action against ALOMY; assay type: in vivo, Alopecurus myosuroides; conditions: 80 g/ha, visual assessment after about 3 weeks
# Description: (§3) Seeds of monocotyledonous and dicotyledonous weed and crop plants are laid out in sandy loam soil in wood-fiber pots, covered with soil and cultivated in a greenhouse under good growth conditions. 2 to 3 weeks after sowing, the test plants are treated at the one-leaf stage. The compounds of the invention, formulated in the form of wettable powders (WP) or as emulsion concentrates (EC), are then sprayed onto the green parts of the plants as aqueous suspension or emulsion at a water application rate equating to 600 to 800 l/ha with addition of 0.2% wetting agent. After the test plants have been left to stand in the greenhouse under optimal growth conditions for about 3 weeks, the action of the preparations is assessed visually in comparison to untreated controls (herbicidal action in percent (%): 100% activity=the plants have died, 0% activity=like control plants).
# AVEFA [8] = assay: Post-emergence herbicidal action against AVEFA; assay type: in vivo, Avena fatua; conditions: 80 g/ha, visual assessment after about 3 weeks
# Description: as §3
# ECHCG [9] = assay: Post-emergence herbicidal action against ECHCG; assay type: in vivo, Echinochloa crus-galli; conditions: 80 g/ha, visual assessment about 3 weeks after treatment vs untreated controls
# Description: as §3
# LOLRI [10] = assay: Post-emergence herbicidal action against LOLRI; assay type: in vivo, Lolium rigidum; conditions: 80 g/ha, visual assessment about 3 weeks after treatment vs untreated controls
# Description: as §3
# SETVI [11] = assay: Post-emergence herbicidal action against SETVI; assay type: in vivo, Setaria viridis; conditions: 80 g/ha, visual assessment about 3 weeks after treatment vs untreated controls
# Description: as §3
# DIGSA [12] = assay: Post-emergence herbicidal action against DIGSA; assay type: in vivo, Digitaria sanguinalis; conditions: 80 g/ha, visual assessment about 3 weeks after treatment vs untreated controls
# Description: as §3
Structure (SMILES),Pre-emergence action against ALOMY in % (ALOMY [1]) [%],Pre-emergence action against AVEFA in % (AVEFA [2]) [%],Pre-emergence action against DIGSA in % (DIGSA [3]) [%],Pre-emergence action against ECHCG in % (ECHCG [4]) [%],Pre-emergence herbicidal action against LOLRI in % (LOLRI [5]) [%],Pre-emergence action against SETVI in % (SETVI [6]) [%],Post-emergence action against ALOMY in % (ALOMY [7]) [%],Post-emergence action against AVEFA in % (AVEFA [8]) [%],Post-emergence action against ECHCG in % (ECHCG [9]) [%],Post-emergence action against LOLRI in % (LOLRI [10]) [%],Post-emergence action against SETVI in % (SETVI [11]) [%],Post-emergence action against DIGSA in % (DIGSA [12]) [%]
CC#Cc1cc(F)c(C2=C(O)C3(CCC(COCC)C3)NC2=O)c(OC)c1 (stereo not drawn) [Example I-43],100,100,100,100,100,100,100,90,100,90,100,–
CC#Cc1cc(Br)c(C2=C(O)C3(CCC(COCC)C3)NC2=O)c(OCC)c1 (stereo not drawn) [Example I-63],100,100,100,100,100,100,100,80,100,90,100,90
CC#Cc1cc(Br)c(C2=C(O)C3(CCC(COCC)C3)NC2=O)c(OCC)c1 (stereo not drawn) [Example I-64],100,80,100,100,100,100,90,80,100,90,100,80
CC#Cc1cc(Br)c(C2=C(O)C3(CCC(COC)C3)NC2=O)c(OCC)c1 (stereo not drawn) [Example I-66],100,100,100,100,100,100,100,80,100,100,100,90
C#CCOCC1CCC2(C1)NC(=O)C(c1c(F)cc(C#CC)cc1OC)=C2O (stereo not drawn) [Example I-74],100,90,100,100,100,100,90,80,100,90,100,90
CC#Cc1cc(Br)c(C2=C(OC(=O)OCC)C3(CCC(COC)C3)NC2=O)c(OCC)c1 (stereo not drawn) [Example P-94],100,100,100,100,100,100,–,–,100,90,100,80
